Laboratory results as given in PubChem BioAssay AID192 (DTP/NCI, 2004).
Where “and” joins values, the source holds several entries; their conditions need not be identical. Identical values can stand only once. Inconclusive results and toxic doses are left out.

Tested on: BDF1 mice, B16 melanoma ip, median survival T/C
Experiment: NCI In Vivo Anticancer Drug Screen. Data for tumor model B16 Melanoma (intraperitoneal) in B6D2F1 (BDF1) mice
Settings: endpoint: median survival time, higher = longer survival
How it was run: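 Transplantable tumor model; survival or tumor size measured; reported as T/C, treated over vehicle control.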

[1] = dose: 12.5 mg/kg/injection, schedule: Q01DX009 (ip), vehicle: Klucel (hydroxypropylcellulose) (HPC)
[2] = dose: 100.0 mg/kg/injection, schedule: Q01DX009 (ip), vehicle: saline with Tween-80
[3] = dose: 200.0 mg/kg/injection, schedule: Q01DX009 (ip), vehicle: saline with Tween-80
[4] = dose: 400.0 mg/kg/injection, schedule: Q01DX009 (ip), vehicle: saline with Tween-80
[5] = dose: 100.0 mg/kg/injection, schedule: Q01DX009 (ip), vehicle: Klucel (hydroxypropylcellulose) (HPC)
[6] = dose: 200.0 mg/kg/injection, schedule: Q01DX009 (ip), vehicle: Klucel (hydroxypropylcellulose) (HPC)
[7] = dose: 400.0 mg/kg/injection, schedule: Q01DX009 (ip), vehicle: Klucel (hydroxypropylcellulose) (HPC)
[8] = dose: 50.0 mg/kg/injection, schedule: Q01DX009 (ip), vehicle: saline
[9] = dose: 100.0 mg/kg/injection, schedule: Q01DX009 (ip), vehicle: saline
[10] = dose: 200.0 mg/kg/injection, schedule: Q01DX009 (ip), vehicle: saline
[11] = dose: 1.56 mg/kg/injection, schedule: Q01DX009 (ip), vehicle: saline
[12] = dose: 3.12 mg/kg/injection, schedule: Q01DX009 (ip), vehicle: saline
[13] = dose: 50.0 mg/kg/injection, schedule: Q01DX009 (ip), vehicle: saline with Tween-80
[14] = dose: 50.0 mg/kg/injection, schedule: Q01DX009 (ip), vehicle: Klucel (hydroxypropylcellulose) (HPC)
[15] = dose: 25.0 mg/kg/injection, schedule: Q01DX009 (ip), vehicle: Klucel (hydroxypropylcellulose) (HPC)
[16] = dose: 12.5 mg/kg/injection, schedule: Q01DX009 (ip), vehicle: saline
[17] = dose: 25.0 mg/kg/injection, schedule: Q01DX009 (ip), vehicle: saline
[18] = dose: 6.25 mg/kg/injection, schedule: Q01DX009 (ip), vehicle: saline
[19] = dose: 25.0 mg/kg/injection, schedule: Q01DX009 (ip), vehicle: saline with Tween-80
[20] = dose: 12.5 mg/kg/injection, schedule: Q01DX009 (ip), vehicle: saline with Tween-80
[21] = dose: 6.25 mg/kg/injection, schedule: Q01DX009 (ip), vehicle: saline with Tween-80

For `C=C(C)C(=O)O[C@H]1[C@H]2[C@H](OC(=O)[C@H]2C)[C@H](O)[C@@H](C)[C@@H]2C=CC(=O)[C@]21C`, the T/C (dose: 7.5 mg/kg/injection, schedule: Q01DX009 (ip), vehicle: saline) was 100 % of control, the T/C (dose: 15.0 mg/kg/injection, schedule: Q01DX009 (ip), vehicle: saline with Tween-80) was 98 % of control and the T/C (dose: 15.0 mg/kg/injection, schedule: Q01DX009 (ip), vehicle: saline) was 106 % of control. For the same molecule, the T/C (dose: 30.0 mg/kg/injection, schedule: Q01DX009 (ip), vehicle: saline with Tween-80) was 114 % of control, the T/C (dose: 30.0 mg/kg/injection, schedule: Q01DX009 (ip), vehicle: saline) was 117 % of control and the T/C (dose: 60.0 mg/kg/injection, schedule: Q01DX009 (ip), vehicle: saline with Tween-80) was 119 % of control.
For `CCC/C=C(/CC(=O)O)C(=O)O`, the T/C (dose: 75.0 mg/kg/injection, schedule: Q04DX003 (ip), vehicle: saline with Tween-80) was 100 % of control.
`FC(F)(F)C(=Cc1nc2ccccc2s1)C(F)(F)F` was tested, and the T/C (dose: 6.25 mg/kg/injection, schedule: Q01DX009 (ip), vehicle: Klucel (hydroxypropylcellulose) (HPC)) was 103 % of control and the T/C [1] was 100 % of control.
For `CC(Oc1ccccc1)C(=O)c1ccccc1` (stereo unspecified), the T/C [2] was 90 % of control, the T/C [3] was 90 % of control and the T/C [4] was 93 % of control.
`Cc1ccc(NS(=O)(=O)c2ccc(F)cc2)c(C)c1` was tested, and the T/C [5] was 106 % of control, the T/C [6] was 110 % of control and the T/C [7] was 93 % of control.
`OCC1OC(Oc2ccc(O)cc2)C(O)C(O)C1O` (stereo unspecified) was tested, and the T/C [8] was 100 % of control, the T/C [9] was 99 % of control and the T/C [10] was 96 % of control. For the same molecule, the T/C (dose: 400.0 mg/kg/injection, schedule: Q01DX009 (ip), vehicle: saline) was 101 % of control.
In the case of `ClCC[Se](Cl)(Cl)c1ccccc1`, the T/C (dose: 0.78 mg/kg/injection, schedule: Q01DX009 (ip), vehicle: saline) is reported as 96 % of control, the T/C [11] is reported as 105 % of control and the T/C [12] is reported as 113 % of control.
In the case of `Cc1cc2ccccc2c[n+]1C`, the T/C (dose: 12.5 mg/kg/injection, schedule: Q04DX003 (ip), vehicle: saline) is reported as 95 % of control, the T/C (dose: 25.0 mg/kg/injection, schedule: Q04DX003 (ip), vehicle: saline) is reported as 95 % of control and the T/C (dose: 50.0 mg/kg/injection, schedule: Q04DX003 (ip), vehicle: saline) is reported as 95 % of control.
For `COC(=O)c1c(C)cc(OC(=O)c2c(C)c(Cl)c(O)c(Cl)c2O)cc1O`, the T/C (dose: 5.0 mg/kg/injection, schedule: Q01DX009 (ip), vehicle: Klucel (hydroxypropylcellulose) (HPC)) was 97 % of control, the T/C (dose: 10.0 mg/kg/injection, schedule: Q01DX009 (ip), vehicle: Klucel (hydroxypropylcellulose) (HPC)) was 94 % of control and the T/C (dose: 20.0 mg/kg/injection, schedule: Q01DX009 (ip), vehicle: Klucel (hydroxypropylcellulose) (HPC)) was 100 % of control.
In the case of `C=C1C(=O)OC2CC3(C)CC(O)C(OC(C)=O)C(=C)C3CC12` (stereo unspecified), the T/C (dose: 2.5 mg/kg/injection, schedule: Q01DX009 (ip), vehicle: saline) is reported as 109 % of control, the T/C (dose: 5.0 mg/kg/injection, schedule: Q01DX009 (ip), vehicle: saline) is reported as 104 % of control and the T/C (dose: 10.0 mg/kg/injection, schedule: Q01DX009 (ip), vehicle: saline) is reported as 106 % of control.
With `C/C(C/C(C)=N/O)=N/O.C/C(C/C(C)=N/O)=N\O.[Cl][Rh][Cl]` the T/C [13] was 96 % of control, the T/C [2] was 98 % of control and the T/C [3] was 96 % of control. The T/C [4] was 92 % of control.
For `C=C(C)[C@@H]1CC[C@]2(C)CC[C@]3(C)[C@H](CC[C@@H]4[C@@]5(C)CC[C@H](O)C(C)(C)[C@@H]5CC[C@]43C)[C@@H]12`, the T/C (dose: 0.75 mg/kg/injection, schedule: Q01DX009 (ip), vehicle: Klucel (hydroxypropylcellulose) (HPC)) was 101 % of control, the T/C (dose: 1.5 mg/kg/injection, schedule: Q01DX009 (ip), vehicle: Klucel (hydroxypropylcellulose) (HPC)) was 95 % of control and the T/C (dose: 3.0 mg/kg/injection, schedule: Q01DX009 (ip), vehicle: Klucel (hydroxypropylcellulose) (HPC)) was 95 % of control.
`COc1ccc(NC(=O)Oc2ccccc2Cc2ccccc2)cc1` was tested, and the T/C [14] was 96 % of control, the T/C (dose: 50.0 mg/kg/injection, schedule: Q04DX003 (ip), vehicle: Klucel (hydroxypropylcellulose) (HPC)) was 96 % of control and the T/C [5] was 93 % of control. The T/C (dose: 100.0 mg/kg/injection, schedule: Q04DX003 (ip), vehicle: Klucel (hydroxypropylcellulose) (HPC)) was 96 % of control, the T/C [6] was 100 % of control and the T/C (dose: 200.0 mg/kg/injection, schedule: Q04DX003 (ip), vehicle: Klucel (hydroxypropylcellulose) (HPC)) was 93 % of control.
With `COc1ccc(N=C=Nc2ccc(OC)cc2)cc1` the T/C [1] was 93 % of control and the T/C [15] was 91 % of control.
In the case of `Cn1c(=O)c2[nH]c(Cc3ccsc3)nc2n(C)c1=O`, the T/C [1] is reported as 104 % of control, the T/C [15] is reported as 107 % of control and the T/C [14] is reported as 96 % of control.
`C=NCC#N` was tested, and the T/C [2] was 93 % of control, the T/C [3] was 88 % of control and the T/C [4] was 93 % of control.
`CC1C=CC(C(N)C(=O)O)O1` (stereo unspecified) was tested, and the T/C [16] was 97 % of control and the T/C [17] was 92 % of control.
With `O=C1CC2(C(=O)N1CN1CCCCC1)c1ccccc1-c1ccccc12` the T/C [1] was 114 % of control, the T/C [14] was 112 % of control and the T/C [5] was 112 % of control. The T/C [6] was 112 % of control.
`C=C(C)C1CCC2(C=O)CCC3(C)C(CCC4C5(C)CCC(O)C(C)(C)C5CCC43C)C12` (stereo unspecified) was tested, and the T/C (dose: 18.75 mg/kg/injection, schedule: Q01DX009 (ip), vehicle: Klucel (hydroxypropylcellulose) (HPC)) was 94 % of control and the T/C (dose: 75.0 mg/kg/injection, schedule: Q01DX009 (ip), vehicle: Klucel (hydroxypropylcellulose) (HPC)) was 97 % of control.
For `Nc1ccccc1N`, the T/C [1] was 96 % of control, the T/C [15] was 98 % of control and the T/C (dose: 25.0 mg/kg/injection, schedule: Q02DX009 (ip), vehicle: saline with Tween-80) was 106 % of control. The T/C [14] was 98 % of control, the T/C [5] was 102 % of control and the T/C (dose: 100.0 mg/kg/injection, schedule: Q02DX009 (ip), vehicle: saline with Tween-80) was 100 % of control. The T/C (dose: 200.0 mg/kg/injection, schedule: Q02DX009 (ip), vehicle: saline with Tween-80) was 100 % of control.
`CCCCCCCCCCCCCCCC[N+]1(C)CCN(SN2CC[N+](C)(CCCCCCCCCCCCCCCC)CC2)CC1` was tested, and the T/C [11] was 93 % of control, the T/C [12] was 89 % of control and the T/C [18] was 87 % of control and 89 % of control.
For `O=C(O)C1(NO)CCCC1`, the T/C [9] was 87 % of control.
With `CC1(C)COCN1COCCOCN1COCC1(C)C` the T/C [18] was 102 % of control, the T/C [16] was 103 % of control and the T/C [17] was 113 % of control. For the same molecule, the T/C [8] was 118 % of control and the T/C [9] was 120 % of control.
In the case of `CCC(C)(CC)OC(N)=O`, the T/C [19] is reported as 112 % of control, the T/C [17] is reported as 95 % of control and the T/C [13] is reported as 112 % of control. For the same molecule, the T/C [8] was 95 % of control, the T/C [2] was 105 % of control and the T/C [9] was 100 % of control. The T/C [3] was 104 % of control and the T/C [10] was 95 % of control.
`O=NN(CCF)C(=O)NC1CCC(NC(=O)N(CCF)N=O)CC1` (stereo unspecified) was tested, and the T/C [20] was 166 % of control, the T/C (dose: 16.5 mg/kg/injection, schedule: Q01DX009 (ip), vehicle: saline with Tween-80) was 232 % of control and the T/C (dose: 16.5 mg/kg/injection, schedule: Q01DX009 (ip), vehicle: saline) was 181 % of control. The T/C [19] was 214 % of control and 276 % of control, the T/C [17] was 120 % of control and the T/C (dose: 37.5 mg/kg/injection, schedule: Q01DX009 (ip), vehicle: saline with Tween-80) was 212 % of control.
With `COC(=O)C(Cc1c[nH]c2ccccc12)NC(=O)C(NC(=O)OC(C)(C)C)C(C)C` (stereo unspecified) the T/C [14] was 91 % of control.
For `COC(=O)Nc1ccc(Cc2ccc(NC(=O)OC)cc2)cc1`, the T/C [21] was 107 % of control, the T/C [20] was 110 % of control and the T/C [19] was 112 % of control. For the same molecule, the T/C [13] was 115 % of control.
`COc1ccc(NC(=O)COc2ccccc2Br)cc1` was tested, and the T/C [5] was 103 % of control, the T/C [6] was 100 % of control and the T/C [7] was 93 % of control.
With `CCCCCCCCCCCCCCCCS(=O)(=O)c1ccc(NN)cc1` the T/C [14] was 97 % of control and the T/C [6] was 86 % of control and 88 % of control.
`Cc1ccc(C)c(NC(=O)c2ccccc2Cl)c1` was tested, and the T/C [5] was 118 % of control, the T/C [6] was 93 % of control and the T/C [7] was 109 % of control.
`CC(=O)NC(Cc1ccc(N(CCCl)CCCl)cc1)C(=O)O` (stereo unspecified) was tested, and the T/C (dose: 3.13 mg/kg/injection, schedule: Q01DX009 (ip), vehicle: saline with Tween-80) was 109 % of control, the T/C [21] was 117 % of control and the T/C [19] was 113 % of control.
